Test results as given in patent US9487483B2, “Complement pathway modulators and uses thereof” (priority 2012, dated 2016).

Each compound was assayed against Recombinant human factor D (Homo sapiens (Human), UniProt P00746) (assay: biochemical). Conditions: Factor D inhibition data using Method 1; substrate Z-Lys-thiobenzyl, fluorescence readout; read-out: IC50.
Assay type: biochemical
Description: Human Complement Factor D Assay: Method 1
Recombinant human factor D (expressed in E. coli and purified using standard methods) at 10 nM concentration is incubated with test compound at various concentrations for 1 hour at room temperature in 0.1 M Hepes buffer, pH 7.5, containing 1 mM MgCl2, 1 M NaCl and 0.05% CHAPS. […] IC50 values are calculated from percentage of inhibition of complement factor D-activity as a function of test compound concentration.

Recombinant human factor D, sequence (P00746 26-253): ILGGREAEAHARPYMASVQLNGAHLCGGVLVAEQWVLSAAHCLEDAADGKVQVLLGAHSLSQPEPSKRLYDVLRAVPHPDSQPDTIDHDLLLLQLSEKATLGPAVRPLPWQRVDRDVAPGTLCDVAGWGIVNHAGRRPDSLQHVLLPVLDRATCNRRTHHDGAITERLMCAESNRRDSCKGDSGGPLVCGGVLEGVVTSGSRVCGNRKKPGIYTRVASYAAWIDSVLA

| Compound | IC50 |
| --- | --- |
| CC(=O)c1nn(CC(=O)N2[C@@H]3C[C@@H]3C[C@H]2C(=O)NC2CC(C)(C)C2)c2cnccc12 [Example 1, (1R,3S,5R)-2-[2-(3-Acetyl-pyrazolo[3,4-c]pyridin-1-yl)-acetyl]-2-aza-bicyclo[3.1.0]hexane-3-carboxylic acid (3,3-dimethyl-cyclobutyl)-amide] | 204 nM |
| CC(=O)c1nn(CC(=O)N2[C@@H]3C[C@@H]3C[C@H]2C(=O)NC2CC2(C)C)c2ncccc12 (stereo partly drawn) [Example 2, (1R,3S,5R)-2-[2-(3-Acetyl-pyrazolo[3,4-b]pyridin-1-yl)-acetyl]-2-aza-bicyclo[3.1.0]hexane-3-carboxylic acid (2,2-dimethyl-cyclopropyl)-amide] | 6900 nM |
| CC(=O)c1nn(CC(=O)N2[C@@H]3C[C@@H]3C[C@H]2C(=O)NC2CC2(F)F)c2ncccc12 (stereo partly drawn) [Example 3, (1R,3S,5R)-2-[2-(3-Acetyl-pyrazolo[3,4-b]pyridin-1-yl)-acetyl]-2-aza-bicyclo[3.1.0]hexane-3-carboxylic acid (2,2-difluoro-cyclopropyl)-amide] | 4790 nM |
| CC(=O)c1nn(CC(=O)N2[C@@H]3C[C@@H]3C[C@H]2C(=O)N[C@@H]2C[C@@H]2F)c2ncccc12 [Example 4, (1R,3S,5R)-2-[2-(3-Acetyl-pyrazolo[3,4-b]pyridin-1-yl)-acetyl]-2-aza-bicyclo[3.1.0]hexane-3-carboxylic acid ((1R,2S)-2-fluoro-cyclopropyl)-amide] | 5130 nM |
| CC(=O)c1nn(CC(=O)N2[C@@H]3C[C@@H]3C[C@H]2C(=O)NC2CC(C)(C)CC(C)(C)C2)c2ncccc12 [Example 6, (1R,3S,5R)-2-[2-(3-Acetyl-pyrazolo[3,4-b]pyridin-1-yl)-acetyl]-2-aza-bicyclo[3.1.0]hexane-3-carboxylic acid (3,3,5,5-tetramethyl-cyclohexyl)-amide] | 56 nM |
| CC(=O)c1nn(CC(=O)N2[C@@H]3C[C@@H]3C[C@H]2C(=O)NC2CCOC(C)(C)C2)c2cnccc12 (stereo partly drawn) [Example 7, (1R,3S,5R)-2-[2-(3-Acetyl-pyrazolo[3,4-c]pyridin-1-yl)-acetyl]-2-aza-bicyclo[3.1.0]hexane-3-carboxylic acid (2,2-dimethyl-tetrahydro-pyran-4-yl)-amide] | 1680 nM |
| CC(=O)c1nn(CC(=O)N2[C@@H]3C[C@@H]3C[C@H]2C(=O)NC2CC(F)(F)C2)c2cnccc12 [Example 8, (1R,3S,5R)-2-[2-(3-Acetyl-pyrazolo[3,4-c]pyridin-1-yl)-acetyl]-2-aza-bicyclo[3.1.0]hexane-3-carboxylic acid (3,3-difluoro-cyclobutyl)-amide] | 2390 nM |
| CC(=O)c1nn(CC(=O)N2[C@@H]3C[C@@H]3C[C@H]2C(=O)NC2CCC(F)(F)CC2)c2cnccc12 [Example 11, (1R,3S,5R)-2-[2-(3-Acetyl-pyrazolo[3,4-c]pyridin-1-yl)-acetyl]-2-aza-bicyclo[3.1.0]hexane-3-carboxylic acid (4,4-difluoro-cyclohexyl)-amide] | 3020 nM |
| COC(=O)[C@@H]1CC[C@@H](NC(=O)[C@@H]2C[C@H]3C[C@H]3N2C(=O)Cn2nc(C(C)=O)c3cccnc32)C1 [Example 13, (1R,3R)-3-({(1R,3S,5R)-2-[2-(3-Acetyl-pyrazolo[3,4-b]pyridin-1-yl)-acetyl]-2-aza-bicyclo[3.1.0]hexane-3-carbonyl}-amino)-cyclopentane carboxylic acid methyl ester] | 5970 nM |
| COC(=O)[C@@H]1CCC[C@H](NC(=O)[C@@H]2C[C@H]3C[C@H]3N2C(=O)Cn2nc(C(C)=O)c3cccnc32)C1 [Example 14, (1R,3S)-3-({(1R,3S,5R)-2-[2-(3-Acetyl-pyrazolo[3,4-b]pyridin-1-yl)-acetyl]-2-aza-bicyclo[3.1.0]hexane-3-carbonyl}-amino)-cyclohexanecarboxylic acid methyl ester] | 2430 nM |
| NC(=O)n1cc(NC(=O)N2[C@@H]3C[C@@H]3C[C@H]2C(=O)NC2CCCCC2)c2ccccc21 [Example 15, (1R,3S,5R)-2-Aza-bicyclo[3.1.0]hexane-2,3-dicarboxylic acid 2-[(1-carbamoyl-1H-indol-3-yl)-amide]3-cyclohexylamide] | 1760 nM |
| NC(=O)n1cc(NC(=O)N2[C@@H]3C[C@@H]3C[C@H]2C(=O)N[C@@H]2C=CCCC2)c2ccccc21 [Example 16, (1R,3S,5R)-2-Aza-bicyclo[3.1.0]hexane-2,3-dicarboxylic acid 2-[(1-carbamoyl-1H-indol-3-yl)-amide] 3-(S)-cyclohex-2-enylamide] | 3150 nM |
| CO[C@H]1CCC[C@@H](NC(=O)[C@@H]2C[C@H]3C[C@H]3N2C(=O)Nc2cn(C(N)=O)c3ccccc23)C1 [Example 21, (1R,3S,5R)-2-Aza-bicyclo[3.1.0]hexane-2,3-dicarboxylic acid 2-[(1-carbamoyl-1H-indol-3-yl)-amide] 3-[((1R,3S)-3-methoxy-cyclohexyl)-amide]] | 486 nM |
| CC1(C)CCC[C@@H](NC(=O)[C@@H]2C[C@H]3C[C@H]3N2C(=O)Nc2cn(C(N)=O)c3ccccc23)C1 [Example 22, (1R,3S,5R)-2-Aza-bicyclo[3.1.0]hexane-2,3-dicarboxylic acid 2-[(1-carbamoyl-1H-indol-3-yl)-amide] 3-[((R)-3,3-dimethyl-cyclohexyl)-amide]] | 15 nM |
| CC[C@H]1CCC[C@@H](NC(=O)[C@@H]2C[C@H]3C[C@H]3N2C(=O)Nc2cn(C(N)=O)c3ccccc23)C1 [Example 23, (1R,3S,5R)-2-Aza-bicyclo [3.1.0]hexane-2,3-dicarboxylic acid 2-[(1-carbamoyl-1H-indol-3-yl)-amide] 3-[((1R,3S)-3-ethyl-cyclohexyl)-amide]] | 16 nM |
| CC[C@@H]1CCC[C@H](NC(=O)[C@@H]2C[C@H]3C[C@H]3N2C(=O)Nc2cn(C(N)=O)c3ccccc23)C1 [Example 24, (1R,3S,5R)-2-Aza-bicyclo [3.1.0]hexane-2,3-dicarboxylic acid 2-[(1-carbamoyl-1H-indol-3-yl)-amide] 3-[((1S,3R)-3-ethyl-cyclohexyl)-amide]] | 401 nM |

Same assay, conditions: IC50, Factor D inhibition data using Method 1; substrate Z-Lys-thiobenzyl, fluorescence readout

| Compound | IC50 |
| --- | --- |
| COC1(C(F)(F)F)CCCC(NC(=O)[C@@H]2C[C@H]3C[C@H]3N2C(=O)Cn2nc(C(N)=O)c3ccccc32)C1 (single isomer, unassigned) [Example 39] | 85 nM |
| COC1(C(F)(F)F)CCCC(NC(=O)[C@@H]2C[C@H]3C[C@H]3N2C(=O)Cn2nc(C(N)=O)c3ccccc32)C1 (single isomer, unassigned) [Example 40] | 4470 nM |
| NC(=O)c1nn(CC(=O)N2[C@@H]3C[C@@H]3C[C@H]2C(=O)NC2CCCC3(CC3)C2)c2ccccc12 (single isomer, unassigned) [Example 57] | 1930 nM |
| NC(=O)c1nn(CC(=O)N2[C@@H]3C[C@@H]3C[C@H]2C(=O)NC2CCCC3(CC3)C2)c2ccccc12 (single isomer, unassigned) [Example 58] | 41 nM |
| CC1(C)CCC(NC(=O)[C@@H]2C[C@H]3C[C@H]3N2C(=O)Cn2nc(C(N)=O)c3ccncc32)C1 (single isomer, unassigned) [Example 67] | 318 nM |
| CC1(C)CCC(NC(=O)[C@@H]2C[C@H]3C[C@H]3N2C(=O)Cn2nc(C(N)=O)c3ccncc32)C1 (single isomer, unassigned) [Example 68] | 1920 nM |
| NC(=O)c1nn(CC(=O)N2C[C@H](F)C[C@H]2C(=O)NC2CCCC3(CC3)C2)c2ccccc12 (single isomer, unassigned) [Example 92] | 2000 nM |
| NC(=O)c1nn(CC(=O)N2C[C@H](F)C[C@H]2C(=O)NC2CCCC3(CC3)C2)c2ccccc12 (single isomer, unassigned) [Example 93] | 92 nM |
| CC(=O)c1nn(CC(=O)N2[C@H](C(=O)NC3CCCC4(CC4)C3)C[C@@]3(CO)C[C@@H]23)c2cnccc12 (single isomer, unassigned) [Example 113] | 90 nM |
| CC(=O)c1nn(CC(=O)N2[C@H](C(=O)NC3CCCC4(CC4)C3)C[C@@]3(CO)C[C@@H]23)c2cnccc12 (single isomer, unassigned) [Example 114] | 1280 nM |

Same assay, conditions: read-out: IC50

| Compound | IC50 |
| --- | --- |
| COC1(C)CCCC(NC(=O)[C@@H]2C[C@H]3C[C@H]3N2C(=O)Cn2nc(C(N)=O)c3ccccc32)C1 (mixture of isomers) [Example 126, 1-(2-((1R,3S,5R)-3-(((1R,3S) and (1S,3R)-3-methoxy-3-methylcyclohexyl)carbamoyl)-2-azabicyclo[3.1.0]hexan-2-yl)-2-oxoethyl)-1H-indazole-3-carboxamide] | 200 nM |
| CC(=O)c1nn(CC(=O)N2[C@@H]3C[C@@H]3C[C@H]2C(=O)NC2CC(C)CC(C)(C)C2)c2ncccc12 (stereo partly drawn) [Example 5, (1R,3S,5R)-2-[2-(3-Acetyl-pyrazolo[3,4-b]pyridin-1-yl)-acetyl]-2-aza-bicyclo[3.1.0]hexane-3-carboxylic acid (3,3,5-trimethyl-cyclohexyl)-amide] | 22 nM |
| CC(=O)c1nn(CC(=O)N2[C@@H]3C[C@@H]3C[C@H]2C(=O)NC2CCCC(F)(F)C2)c2cnccc12 (stereo partly drawn) [Example 9, (1R,3S,5R)-2-[2-(3-Acetyl-pyrazolo[3,4-c]pyridin-1-yl)-acetyl]-2-aza-bicyclo[3.1.0]hexane-3-carboxylic acid (3,3-difluoro-cyclohexyl)-amide] | 1480 nM |
| CC(=O)c1nn(CC(=O)N2[C@@H]3C[C@@H]3C[C@H]2C(=O)NC2(CO)CCCCC2)c2cnccc12 [Example 10, (1R,3S,5R)-2-[2-(3-Acetyl-pyrazolo[3,4-c]pyridin-1-yl)-acetyl]-2-aza-bicyclo[3.1.0]hexane-3-carboxylic acid (1-hydroxymethyl-cyclohexyl)-amide] | 1820 nM |
| CC(=O)c1nn(CC(=O)N2[C@@H]3C[C@@H]3C[C@H]2C(=O)N[C@@H]2CC[C@@H](C(N)=O)C2)c2ncccc12 [Example 12, (1R,3S,5R)-2-[2-(3-Acetyl-pyrazolo[3,4-b]pyridin-1-yl)-acetyl]-2-aza-bicyclo[3.1.0]hexane-3-carboxylic acid ((1R,3R)-3-carbamoyl-cyclopentyl)-amide] | 12700 nM |
| C[C@H]1CCC[C@@H](NC(=O)[C@@H]2C[C@H]3C[C@H]3N2C(=O)Nc2cn(C(N)=O)c3ccccc23)C1 [Example 25, (1R,3S,5R)-2-Aza-bicyclo[3.1.0] hexane-2,3-dicarboxylic acid 2-[(1-carbamoyl-1H-indol-3-yl)-amide] 3-[((1R,3S)-3-methyl-cyclohexyl)-amide]] | 28 nM |
